From patent US8105745B2, “Radiation crosslinker” (National University of Singapore, priority 2005, dated 2012)

Key:
solubility in solvents = format: physicochemical
[1] = stability of the azide in acidified aqueous MeOD (19F NMR, FTIR); format: physicochemical
Procedure: The azide compounds according to the present invention are stable even in strongly acidic aqueous environment. […] Its ^19F NMR spectrum is acquired within 5 min and again after 21 days. […] This was further confirmed through FTIR analysis of the solid recovered by evaporation after the ^19F NMR experiment. No change in the azide stretching intensity (νasN3, 2129 cm^−1) normalized against benzene (νring, 1546 cm^−1) was observed.

solubility in H2O (solubility in solvents) | change of 19F NMR spectrum ([1]; 16 mg mL^-1 in acidified deuterated MeOD containing 2.4 M HCl and 6.5 M H2O, within 5 min vs after 21 days) | change in azide stretching intensity (FTIR, 2129 cm^-1) normalized against benzene ring band ([1]; solid recovered by evaporation after the 19F NMR experiment (21 days in acidic aqueous MeOD)) | Compound
soluble in H2O | – | – | C[N+](C)(CCCNC(=O)c1c(F)c(F)c(N=[N+]=[N-])c(F)c1F)CCCNC(=O)c1c(F)c(F)c(N=[N+]=[N-])c(F)c1F [V]
– | No observable change | No change | N,N-dimethyl-N,N-dipropylene bis(4-azido-2,3,5,6-tetrafluorobenzamide) ammonium iodide
